{
  "source": "patent US8247211B2",
  "about": "“Glycopeptide antibiotics” (American Cyanamid Company, priority 2001, dated 2012)",
  "tested_on": "Staphylococcus aureus",
  "test": "Zone of inhibition, assay plate Staphylococcus aureus",
  "format": "cell-based",
  "details": "25 μl of extract per 5 mm well, Nutrient Agar pH 6.8, incubated overnight at 37° C.",
  "protocol": "Inoculate 10 mL of Tryptic Soy Broth with a loopful of slant culture, Staphylococcus aureus, and place in a stationary rack at 37° C. After 16-18 hour incubation, the Optical Density (OD) of the culture is read @ A600 nm, using a 1:10 dilution. OD should be between 0.1-0.3, and if not adjust with Tryptic Soy Broth. A 40 mL sample of Nutrient Agar, pH 6.8 is inoculated with 90 μl of S. aureus culture and poured into a sterile petri dish. When the agar has solidified, wells (5 mm) are plated using an automated welling device. Wells are inoculated with 25 μl of extract and incubated overnight at 37° C. Zones of inhibition are measured and recorded the following morning.",
  "data": [
    {"smiles": "CC(C)CCC(=O)OC1C(CO)OC(OC2C(CO)OC(Oc3ccc(CC4NC(=O)C(C(C)c5ccccc5)NC(=O)CNC(=O)C(CO)NC(=O)C(C(O)C5CNC(=N)N5C5OC(CO)C(O)C(O)C5O)NC(=O)C(C(O)C5CNC(=N)N5)NC4=O)cc3)C(O)C2O)C(O)C1O", "note": "(stereo not drawn) [Example 270c, Cyclo[glycyl-β-methylphenylalanyl-O-[4-O-[4-O-(4-methylpentanoyl)hexopyranosyl]-hexopyranosyl]tyrosyl-3-(2-iminoimidazolidin-4-yl)seryl-3-(3-hexopyranosyl-2-iminoimidazolidin-4-yl)serylseryl]]", "values": [
      {"measurement": "Zone of Inhibition vs. S. aureus", "value": 11, "unit": "mm"}
    ]},
    {"smiles": "CCC(C)CC(=O)OC1C(CO)OC(OC2C(CO)OC(Oc3ccc(CC4NC(=O)C(C(C)c5ccccc5)NC(=O)CNC(=O)C(CO)NC(=O)C(C(O)C5CNC(=N)N5C5OC(CO)C(O)C(O)C5O)NC(=O)C(C(O)C5CNC(=N)N5)NC4=O)cc3)C(O)C2O)C(O)C1O", "note": "(stereo not drawn) [Example 271c, Cyclo[glycyl-β-methylphenylalanyl-O-[4-O-[4-O-(3-methylpentanoyl)hexopyranosyl]-hexopyranosyl]tyrosyl-3-(2-iminoimidazolidin-4-yl)seryl-3-(3-hexopyranosyl-2-iminoimidazolidin-4-yl)serylseryl]]", "values": [
      {"measurement": "Zone of Inhibition vs. S. aureus", "value": 12, "unit": "mm"}
    ]}
  ]
}
